# Data published in ChEMBL document CHEMBL2046314, “Chlorine atom substitution influences radical scavenging activity of 6-chromanol” (Bioorg Med Chem, 2012).
# Legend:
# [1] = Dissociation constant, pKa of the compound by UV-visible absorption spectroscopy; assay type: physicochemical
# [2] = Antioxidant activity assessed as second order rate constant for galvinoxyl radical scavenging activity in acetonitrile solution by UV-visible absorption spectroscopy; assay type: functional
# [3] = Hydroxyl radical scavenging activity assessed as reduction of DMPO-OH adduct formation using Fenton reaction by ESR spectroscopy; assay type: functional
SMILES,pKa [1],Activity [2] [M⁻¹ s⁻¹],Activity [3]
CC1(C)CCc2cc(O)cc(Cl)c2O1,9.8,21,Dose-dependent effect
CC1(C)CCc2cc(O)ccc2O1,10.3,98,Dose-dependent effect
CC1(C)CCc2cc(O)c(Cl)cc2O1,9.1,42,Dose-dependent effect
CC1(C)CCc2c(ccc(O)c2Cl)O1,8.6,37,Dose-dependent effect

# The next lines start with results.
pKa [1],SMILES,Activity [2] [M⁻¹ s⁻¹],Activity [3]
7.7,CC1(C)CCc2c(cc(Cl)c(O)c2Cl)O1,67,Dose-dependent effect
7.1,CC1(C)CCc2c(Cl)c(O)c(Cl)c(Cl)c2O1,54,Dose-dependent effect
